Data: publication PMC10067623, “Characterization of an Aplysia vasotocin signaling system and actions of posttranslational modifications and individual residues of the ligand on receptor activity” (Frontiers in Pharmacology, 2023)
Several values for one entry are separate records, joined by “and”; a condition that tells them apart may be missing. Identical values can stand only once. Entries after “also recorded” stand apart in the source; their conditions may differ. Like-named read-outs stand apart in the source and are kept apart here. Bridge positions count the residues as written; N and C are the ends. Peptide text beside a SMILES is read from it. * marks the point of attachment. Acm = CC(=O)NC*

Assays:
[1] = target: T1, apVTR1 (Aplysia californica, UniProt A0ABM1ABB6); assay: cell-based; type: cell-based; conditions: for activation of apVTR1 (IP1 response), in words / apVTR1 log[EC50]: CHO-K1 cells, without promiscuous Gαq; for apVTR1 log[EC50]: log[EC50] with negative sign as printed, average, n = 3
T1 sequence (A0ABM1ABB6 1-470): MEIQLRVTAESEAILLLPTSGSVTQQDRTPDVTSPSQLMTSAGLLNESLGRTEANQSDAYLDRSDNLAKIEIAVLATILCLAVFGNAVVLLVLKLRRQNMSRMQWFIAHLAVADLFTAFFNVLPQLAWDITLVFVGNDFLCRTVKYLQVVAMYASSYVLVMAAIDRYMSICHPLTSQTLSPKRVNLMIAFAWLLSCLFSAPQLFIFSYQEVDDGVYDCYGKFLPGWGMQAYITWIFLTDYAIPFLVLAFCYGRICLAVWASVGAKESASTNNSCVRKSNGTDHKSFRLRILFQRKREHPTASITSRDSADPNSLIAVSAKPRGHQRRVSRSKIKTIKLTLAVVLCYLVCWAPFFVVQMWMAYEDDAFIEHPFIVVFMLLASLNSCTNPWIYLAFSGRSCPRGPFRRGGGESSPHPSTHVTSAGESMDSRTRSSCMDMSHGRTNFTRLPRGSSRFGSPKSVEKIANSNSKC

[2] = test system: apVTR2; assay: IP1 accumulation assay, apVTR2 transiently expressed in CHO-K1 cells; type: cell-based, Aplysia californica; conditions: for apVTR2 log[EC50]: log[EC50] with negative sign as printed, average
[3] = test system: Class-A GPCR 3; assay: IP1 accumulation assay, Class-A GPCR 3 co-transfected with promiscuous Gαq (Gα16) in CHO-K1 cells; type: cell-based, Aplysia californica
[4] = CHO-K1 cells, without promiscuous Gαq, dose-response 10^-12 M to 10^-4 M, n = 3
[5] = n = 3, CHO-K1 cells, without promiscuous Gαq
[6] = co-transfected with promiscuous Gαq (Gα16), 10^-5 M vs 10^-10 M
[7] = CHO-K1 cells, without promiscuous Gαq
[8] = co-transfected with promiscuous Gαq, 10^-5 M vs 10^-10 M (control)

Compound	EC50 ([1]; apVTR1 EC50) [µM]	EC50 ([1]; apVTR1 log[EC50]) [µM]	apVTR2 log[EC50] [2, 5] [M]	activation of Class-A GPCR 3 (IP1 response), in words [3, 6]	EC50 [2]	further results
CC(C)[C@@H]1NC(=O)[C@H](Cc2ccccc2)NC(=O)[C@@H](N)CSSC[C@@H](C(=O)N2CCC[C@H]2C(=O)N[C@H](C(=O)NCC(N)=O)[C@@H](C)O)NC(=O)[C@H](CC(N)=O)NC(=O)[C@H](CCCNC(=N)N)NC1=O [Annetocin, reference compound] (H-CFVRNCPTG-NH2; disulfide 1-6)	5.6	6.31	-6.0±0.20	do not affect; also recorded: none of the four peptides had any effects		EC50 [2, 4]: 1.1 µM
CC[C@H](C)[C@@H]1NC(=O)[C@H](Cc2ccc(O)cc2)NC(=O)[C@@H](N)CSSC[C@@H](C(=O)N2CCC[C@H]2C(=O)N[C@@H](CC(C)C)C(=O)NCC(N)=O)NC(=O)[C@H](CC(N)=O)NC(=O)[C@H](CCC(N)=O)NC1=O [Oxytocin, reference compound]	16	15.8	-5.4±0.016	do not affect; also recorded: none of the four peptides had any effects		activation of apVTR1 (IP1 response), in words [1]: weak activation effect; activation of apVTR2 (IP1 response), in words [2, 7]: weak activation effect; EC50 [2, 4]: 3.6 µM
C[C@@H]1NC(=O)[C@H](Cc2ccccc2)NC(=O)[C@@H](N)CSSC[C@@H](C(=O)N2CCC[C@H]2C(=O)N[C@@H](CCCCN)C(=O)NCC(N)=O)NC(=O)[C@H](CC(N)=O)NC(=O)[C@H](CCCNC(=N)N)NC1=O [[Ala^3]apVT] (H-CFARNCPKG-NH2; disulfide 1-6)	30	31.6				
CC[C@H](C)[C@@H]1NC(=O)[C@H](Cc2ccccc2)NC(=O)[C@@H](N)CSSC[C@@H](C(=O)N2CCC[C@H]2C(=O)N[C@@H](CCCCN)C(=O)NCC(N)=O)NC(=O)[C@H](C)NC(=O)[C@H](CCCNC(=N)N)NC1=O [[Ala^5]apVT] (H-CFIRACPKG-NH2; disulfide 1-6)	6	6.31				
CC[C@H](C)[C@@H]1NC(=O)[C@H](Cc2ccccc2)NC(=O)[C@@H](N)CSSC[C@@H](C(=O)N[C@@H](C)C(=O)N[C@@H](CCCCN)C(=O)NCC(N)=O)NC(=O)[C@H](CC(N)=O)NC(=O)[C@H](CCCNC(=N)N)NC1=O [[Ala^7]apVT] (H-CFIRNCAKG-NH2; disulfide 1-6)	1.1	1				
CC[C@H](C)[C@@H]1NC(=O)[C@H](Cc2ccccc2)NC(=O)[C@@H](N)CSSC[C@@H](C(=O)N2CCC[C@H]2C(=O)N[C@@H](C)C(=O)NCC(N)=O)NC(=O)[C@H](CC(N)=O)NC(=O)[C@H](CCCNC(=N)N)NC1=O [[Ala^8]apVT] (H-CFIRNCPAG-NH2; disulfide 1-6)	1.5	1.58				
CC[C@H](C)[C@@H]1NC(=O)[C@H](Cc2ccccc2)NC(=O)[C@@H](N)CSSC[C@@H](C(=O)N2CCC[C@H]2C(=O)N[C@@H](CCCCN)C(=O)N[C@@H](C)C(N)=O)NC(=O)[C@H](CC(N)=O)NC(=O)[C@H](CCCNC(=N)N)NC1=O [[Ala^9]apVT] (H-CFIRNCPKA-NH2; disulfide 1-6)	1	1				
CC[C@H](C)[C@H](NC(=O)[C@H](Cc1ccccc1)NC(=O)[C@@H](N)CSCNC(C)=O)C(=O)N[C@@H](CCCNC(=N)N)C(=O)N[C@@H](CC(N)=O)C(=O)N[C@@H](CSCNC(C)=O)C(=O)N1CCC[C@H]1C(=O)N[C@@H](CCCCN)C(=O)NCC(N)=O [[Cys(Acm)^1,6]apVT] (H-C(Acm)FIRNC(Acm)PKG-NH2; N-terminus and C-terminus assumed)	12	12.6	-4.3±0.57		47 µM	
CC[C@H](C)[C@H](NC(=O)[C@H](Cc1ccccc1)NC(=O)[C@@H](N)CSCNC(C)=O)C(=O)N[C@@H](CCCNC(=N)N)C(=O)N[C@@H](CC(N)=O)C(=O)N[C@@H](CS)C(=O)N1CCC[C@H]1C(=O)N[C@@H](CCCCN)C(=O)NCC(N)=O [[Cys(Acm)^1]apVT] (H-C(Acm)FIRNCPKG-NH2; N-terminus assumed)	2.9	3.16	-5.1±0.21		7.8 µM	
CC[C@H](C)[C@H](NC(=O)[C@H](Cc1ccccc1)NC(=O)[C@@H](N)CS)C(=O)N[C@@H](CCCNC(=N)N)C(=O)N[C@@H](CC(N)=O)C(=O)N[C@@H](CSCNC(C)=O)C(=O)N1CCC[C@H]1C(=O)N[C@@H](CCCCN)C(=O)NCC(N)=O [[Cys(Acm)^6]apVT] (H-CFIRNC(Acm)PKG-NH2; N-terminus assumed)	1.5	1.58	-5.1±0.21		7.8 µM	
CC[C@H](C)[C@H](NC(=O)[C@H](Cc1ccccc1)NC(=O)[C@@H](N)CS)C(=O)N[C@@H](CCCNC(=N)N)C(=O)N[C@@H](CC(N)=O)C(=O)N[C@@H](CS)C(=O)N1CCC[C@H]1C(=O)N[C@@H](CCCCN)C(=O)NCC(=O)O [apVT'-OH] (H-CFIRNCPKG-OH; N-terminus assumed)	2.2	2	-5.6±0.18		2.2 µM	
CC[C@H](C)[C@@H]1NC(=O)[C@H](Cc2ccccc2)NC(=O)[C@@H](N)CSSC[C@@H](C(=O)N2CCC[C@H]2C(=O)N[C@@H](CCCCN)C(=O)NCC(N)=O)NC(=O)[C@H](CC(N)=O)NC(=O)[C@H](CCCNC(=N)N)NC1=O [apVT, Aplysia vasotocin] (H-CFIRNCPKG-NH2; disulfide 1-6; N-terminus assumed)	0.07		-7.1±0.18		0.077 µM and 0.07 µM	apVTR1 EC50 [1]: 0.065 µM; screening of apVTR1 activation (IP1 response), in words [1, 8]: responded; apVTR1 log[EC50] [1]: -7.2±0.036 M; apVTR1 log[EC50] ([1]; listed as apVT'): -7.2±0.07 M; screening of apVTR2 activation (IP1 response), in words [2, 8]: responded; apVTR2 log[EC50] ([2]; n = 3, CHO-K1 cells, without promiscuous Gαq, listed as apVT'): -7.2±0.15 M; activation of Class-A GPCR 3 (IP1 response), in words [3]: no response; also recorded: not responsive
CC[C@H](C)[C@@H]1NC(=O)[C@H](Cc2ccccc2)NC(=O)[C@@H](N)CSSC[C@@H](C(=O)N2CCC[C@H]2C(=O)N[C@@H](CCCCN)C(=O)NCC(=O)O)NC(=O)[C@H](CC(N)=O)NC(=O)[C@H](CCCNC(=N)N)NC1=O [apVT-OH] (H-CFIRNCPKG-OH; disulfide 1-6; N-terminus assumed)	3.5	3.16	-6.0±0.06		1 µM	
AstC				not responsive to any of these		
Urotensin II				not responsive to any of these		
Vasopressin [reference compound]				none of the four peptides had any effects		activation of apVTR1 (IP1 response), in words [1]: no effects; activation of apVTR2 (IP1 response), in words [2, 7]: no effects; activation of Class-A GPCR 3 (IP1 response), in words ([3]; co-transfected with promiscuous Gαq (Gα16), 10^-5 M vs 10^-10 M, listed as Vasopressin): do not affect
